# Source: patent US11168086B2, “Methods of synthesizing pyrazine compounds” (Hoffmann-La Roche Inc., priority 2015, dated 2021)
# Tested on: HBV
# Assay: HBV inhibition assay: anti-HBV activity in vitro in HepG2.2.15 cells (extracellular HBV DNA by qPCR)
# Assay type: cell-based
# Conditions: Hepatitis B virus, 120 h, five days after compound treatment, extracellular HBV DNA in culture supernatant by qPCR, concentration at which HBV replication is inhibited by 50%
# Outline: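 HepG2.2.15 cells (stably carrying HBV genome) treated with half-log serially diluted compounds at 0.5% DMSO final for five days. Extracellular HBV DNA in supernatant quantified by qPCR after Proteinase K digestion; EC50 is concentration giving 50% inhibition of replication.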
row,SMILES,EC50 [µM]
1,"C[C@H]1Cn2ncc(N3CC(Cn4cccn4)CC3=O)c2CN1C(=O)Nc1cc(F)c(F)c(F)c1 (stereo partly drawn) [Example 268, (6S)-6-methyl-3-[2-oxo-4-(pyrazol-1-ylmethyl)pyrrolidin-1-yl]-N-(3,4,5-trifluorophenyl)-6,7-dihydro-4H-pyrazolo[1,5-a]pyrazine-5-carboxamide]",0.096
2,"C[C@H]1Cn2ncc(N3CC(Nc4ncccn4)CC3=O)c2CN1C(=O)Nc1cc(F)c(F)c(F)c1 (stereo partly drawn) [Example 269, (6S)-6-methyl-3-[2-oxo-4-(pyrimidin-2-ylamino)pyrrolidin-1-yl]-N-(3,4,5-trifluorophenyl)-6,7-dihydro-4H-pyrazolo[1,5-a]pyrazine-5-carboxamide]",0.012
3,"C[C@H]1Cn2ncc(N3CC(Nc4ncncc4F)CC3=O)c2CN1C(=O)Nc1cc(F)c(F)c(F)c1 (stereo partly drawn) [Example 270, (6S)-3-[4-[(5-fluoropyrimidin-4-yl)amino]-2-oxo-pyrrolidin-1-yl]-6-methyl-N-(3,4,5-trifluorophenyl)-6,7-dihydro-4H-pyrazolo[1,5-a]pyrazine-5-carboxamide]",0.017
4,"C[C@H]1Cn2ncc(N3CCOCC3=O)c2CN1C(=O)Nc1cc(F)c(F)c(C(F)F)c1 [Example 271, (6S)—N-[3-(difluoromethyl)-4,5-difluoro-phenyl]-6-methyl-3-(3-oxomorpholin-4-yl)-6,7-dihydro-4H-pyrazolo[1,5-a]pyrazine-5-carboxamide]",0.038
5,"C[C@H]1Cn2ncc(N3CC(C)(C)OC3=O)c2CN1C(=O)Nc1ccnc(C(F)F)c1 [Example 272, (6S)—N-[2-(difluoromethyl)-4-pyridyl]-3-(5,5-dimethyl-2-oxo-oxazolidin-3-yl)-6-methyl-6,7-dihydro-4H-pyrazolo[1,5-a]pyrazine-5-carboxamide]",0.104
6,"C[C@H]1[C@H](C)n2ncc(N3CCNC3=O)c2CN1C(=O)Nc1cc(F)c(F)c(F)c1 [Example 273, (6S,7S)-6,7-dimethyl-3-(2-oxoimidazolidin-1-yl)-N-(3,4,5-trifluorophenyl)-6,7-dihydro-4H-pyrazolo[1,5-a]pyrazine-5-carboxamide]",0.039
7,"C[C@H]1[C@H](C)n2ncc(N3CCOCC3=O)c2CN1C(=O)Nc1cc(F)c(F)c(F)c1 [Example 274, (6S,7S)-6,7-dimethyl-3-(3-oxomorpholin-4-yl)-N-(3,4,5-trifluorophenyl)-6,7-dihydro-4H-pyrazolo[1,5-a]pyrazine-5-carboxamide]",0.04
8,"C[C@H]1Cn2ncc(N3CN(C(=O)c4ccccc4)CC3=O)c2CN1C(=O)Nc1cc(F)c(F)c(F)c1 [Example 275, (6S)-3-(3-benzoyl-5-oxo-imidazolidin-1-yl)-6-methyl-N-(3,4,5-trifluorophenyl)-6,7-dihydro-4H-pyrazolo[1,5-a]pyrazine-5-carboxamide]",0.064
9,"C[C@H]1Cn2ncc(N3CC(C)(C)OC3=O)c2CN1C(=O)Nc1cc(F)c(F)c(C(F)F)c1 [Example 276, (6S)—N-[3-(difluoromethyl)-4,5-difluoro-phenyl]-3-(5,5-dimethyl-2-oxo-oxazolidin-3-yl)-6-methyl-6,7-dihydro-4H-pyrazolo[1,5-a]pyrazine-5-carboxamide]",0.006
10,"CC1COC(=O)N(c2cnn3c2CN(C(=O)Nc2cc(F)c(F)c(F)c2)[C@@H](C)C3)C1 (stereo partly drawn) [Example 278, (6S)-6-methyl-3-(5-methyl-2-oxo-1,3-oxazinan-3-yl)-N-(3,4,5-trifluorophenyl)-6,7-dihydro-4H-pyrazolo[1,5-a]pyrazine-5-carboxamide]",0.027
11,"C[C@H]1Cn2ncc(N3CN(c4ncccn4)CC3=O)c2CN1C(=O)Nc1cc(F)c(F)c(F)c1 [Example 281, (6S)-6-methyl-3-(5-oxo-3-pyrimidin-2-yl-imidazolidin-1-yl)-N-(3,4,5-trifluorophenyl)-6,7-dihydro-4H-pyrazolo[1,5-a]pyrazine-5-carboxamide]",0.052
12,"C[C@H]1Cn2ncc(N3CC(c4nnco4)CC3=O)c2CN1C(=O)Nc1cc(F)c(F)c(F)c1 (stereo partly drawn) [Example 282, (6S)-6-methyl-3-[4-(1,3,4-oxadiazol-2-yl)-2-oxo-pyrrolidin-1-yl]-N-(3,4,5-trifluorophenyl)-6,7-dihydro-4H-pyrazolo[1,5-a]pyrazine-5-carboxamide]",0.057
13,"Cc1nnc(C2CC(=O)N(c3cnn4c3CN(C(=O)Nc3cc(F)c(F)c(F)c3)[C@@H](C)C4)C2)o1 (stereo partly drawn) [Example 283, (6S)-6-methyl-3-[4-(5-methyl-1,3,4-oxadiazol-2-yl)-2-oxo-pyrrolidin-1-yl]-N-(3,4,5-trifluorophenyl)-6,7-dihydro-4H-pyrazolo[1,5-a]pyrazine-5-carboxamide]",0.047
14,"Cc1noc(C2CC(=O)N(c3cnn4c3CN(C(=O)Nc3cc(F)c(F)c(F)c3)[C@@H](C)C4)C2)n1 (stereo partly drawn) [Example 284, (6S)-6-methyl-3-[4-(3-methyl-1,2,4-oxadiazol-5-yl)-2-oxo-pyrrolidin-1-yl]-N-(3,4,5-trifluorophenyl)-6,7-dihydro-4H-pyrazolo[1,5-a]pyrazine-5-carboxamide]",0.01
15,"Cc1nc(C2CC(=O)N(c3cnn4c3CN(C(=O)Nc3cc(F)c(F)c(F)c3)[C@@H](C)C4)C2)no1 (stereo partly drawn) [Example 285, (6S)-6-methyl-3-[4-(5-methyl-1,2,4-oxadiazol-3-yl)-2-oxo-pyrrolidin-1-yl]-N-(3,4,5-trifluorophenyl)-6,7-dihydro-4H-pyrazolo[1,5-a]pyrazine-5-carboxamide]",0.007
16,"C[C@H]1Cn2ncc(N3CC(c4nnc(C(F)(F)F)o4)CC3=O)c2CN1C(=O)Nc1cc(F)c(F)c(F)c1 (stereo partly drawn) [Example 286, (6S)-6-methyl-3-[2-oxo-4-[5-(trifluoromethyl)-1,3,4-oxadiazol-2-yl]pyrrolidin-1-yl]-N-(3,4,5-trifluorophenyl)-6,7-dihydro-4H-pyrazolo[1,5-a]pyrazine-5-carboxamide]",0.026
17,"C[C@H]1Cn2ncc(N3CC(c4cncs4)CC3=O)c2CN1C(=O)Nc1cc(F)c(F)c(F)c1 (stereo partly drawn) [Example 290, (6S)-6-methyl-3-(2-oxo-4-thiazol-5-yl-pyrrolidin-1-yl)-N-(3,4,5-trifluorophenyl)-6,7-dihydro-4H-pyrazolo[1,5-a]pyrazine-5-carboxamide]",0.011
18,"C[C@H]1Cn2ncc(N3CC(c4nccs4)CC3=O)c2CN1C(=O)Nc1cc(F)c(F)c(F)c1 (stereo partly drawn) [Example 291, (6S)-6-methyl-3-(2-oxo-4-thiazol-2-yl-pyrrolidin-1-yl)-N-(3,4,5-trifluorophenyl)-6,7-dihydro-4H-pyrazolo[1,5-a]pyrazine-5-carboxamide]",0.007
19,"C[C@H]1Cn2ncc(N3CCCOC3=O)c2CN1C(=O)Nc1cc(F)c(F)c(F)c1 [Example 292, (6S)-6-methyl-3-(2-oxo-1,3-oxazinan-3-yl)-N-(3,4,5-trifluorophenyl)-6,7-dihydro-4H-pyrazolo[1,5-a]pyrazine-5-carboxamide]",0.048
20,"C[C@H]1Cn2ncc(N3CC(C)(C)COC3=O)c2CN1C(=O)Nc1cc(F)c(F)c(F)c1 [Example 294, (6S)-3-(5,5-dimethyl-2-oxo-1,3-oxazinan-3-yl)-6-methyl-N-(3,4,5-trifluorophenyl)-6,7-dihydro-4H-pyrazolo[1,5-a]pyrazine-5-carboxamide]",0.013
21,"COCC1CC(=O)N(c2cnn3c2CN(C(=O)Nc2ccc(F)c(Cl)c2)[C@@H](C)C3)C1 (stereo partly drawn) [Example 295, (6S)—N-(3-chloro-4-fluoro-phenyl)-3-[4-(methoxymethyl)-2-oxo-pyrrolidin-1-yl]-6-methyl-6,7-dihydro-4H-pyrazolo[1,5-a]pyrazine-5-carboxamide]",0.033
